In ChEMBL document CHEMBL4732086, “Targeting nuclear protein TDP-43 by cell division cycle kinase 7 inhibitors: A new therapeutic approach for amyotrophic lateral sclerosis” (Eur J Med Chem, 2021):
pIC50: −log10 of the molar value. Active and inactive are the calls of the source. The rule behind the calls is not given here.

Key:
[1] = molecular target: CDC7/DBF4 (Cell division cycle 7-related protein kinase/Activator of S phase kinase) (Homo sapiens, UniProt O00311); experiment: Inhibition of recombinant human CDC7/Dbf4 expressed in baculovirus infected Sf9 insect cells assessed as inhibition of fluorescein labelled substrate phosphorylation in presence of ATP measured after 60 mins by TR-FRET assay
[2] = molecular target: Cell division cycle 7-related protein kinase (Homo sapiens) (UniProt O00311); experiment: Inhibition of human CDC7 in human SH-SY5Y cells assessed as prevention of ethacrynic acid-induced cell death preincubated for 1 hr followed by incubation with ethacrynic acid for 24 hrs measured at 10 uM by MTT assay relative to control; format: cell-based
[3] = molecular target: CDC7/DBF4 (Cell division cycle 7-related protein kinase/Activator of S phase kinase) (Homo sapiens) (UniProt Q9UBU7+O00311); experiment: Inhibition of recombinant human CDC7/Dbf4 expressed in baculovirus infected Sf9 insect cells assessed as inhibition of fluorescein labelled substrate phosphorylation in presence of ATP at 10 uM measured after 60 mins by TR-FRET assay
Sequence of CDC7/DBF4 (Cell division cycle 7-related protein kinase/Activator of S phase kinase) (Homo sapiens) (O00311 whole entry, looked up): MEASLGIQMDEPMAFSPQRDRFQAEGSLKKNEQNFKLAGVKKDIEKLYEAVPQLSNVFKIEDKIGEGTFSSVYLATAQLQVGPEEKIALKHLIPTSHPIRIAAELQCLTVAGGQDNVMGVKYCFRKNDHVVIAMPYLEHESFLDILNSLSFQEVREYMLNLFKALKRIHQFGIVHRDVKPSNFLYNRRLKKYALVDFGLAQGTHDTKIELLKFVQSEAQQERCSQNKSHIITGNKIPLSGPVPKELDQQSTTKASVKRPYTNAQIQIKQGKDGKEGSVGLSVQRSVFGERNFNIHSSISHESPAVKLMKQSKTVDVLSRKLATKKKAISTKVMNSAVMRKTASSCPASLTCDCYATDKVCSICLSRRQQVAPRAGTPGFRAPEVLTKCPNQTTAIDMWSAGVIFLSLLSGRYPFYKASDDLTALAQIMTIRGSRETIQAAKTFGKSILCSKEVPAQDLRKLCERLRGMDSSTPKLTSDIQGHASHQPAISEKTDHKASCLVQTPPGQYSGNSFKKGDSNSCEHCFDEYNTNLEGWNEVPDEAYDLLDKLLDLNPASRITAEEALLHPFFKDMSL
Sequence of CDC7/DBF4 (Cell division cycle 7-related protein kinase/Activator of S phase kinase) (Homo sapiens) (Q9UBU7 whole entry, looked up): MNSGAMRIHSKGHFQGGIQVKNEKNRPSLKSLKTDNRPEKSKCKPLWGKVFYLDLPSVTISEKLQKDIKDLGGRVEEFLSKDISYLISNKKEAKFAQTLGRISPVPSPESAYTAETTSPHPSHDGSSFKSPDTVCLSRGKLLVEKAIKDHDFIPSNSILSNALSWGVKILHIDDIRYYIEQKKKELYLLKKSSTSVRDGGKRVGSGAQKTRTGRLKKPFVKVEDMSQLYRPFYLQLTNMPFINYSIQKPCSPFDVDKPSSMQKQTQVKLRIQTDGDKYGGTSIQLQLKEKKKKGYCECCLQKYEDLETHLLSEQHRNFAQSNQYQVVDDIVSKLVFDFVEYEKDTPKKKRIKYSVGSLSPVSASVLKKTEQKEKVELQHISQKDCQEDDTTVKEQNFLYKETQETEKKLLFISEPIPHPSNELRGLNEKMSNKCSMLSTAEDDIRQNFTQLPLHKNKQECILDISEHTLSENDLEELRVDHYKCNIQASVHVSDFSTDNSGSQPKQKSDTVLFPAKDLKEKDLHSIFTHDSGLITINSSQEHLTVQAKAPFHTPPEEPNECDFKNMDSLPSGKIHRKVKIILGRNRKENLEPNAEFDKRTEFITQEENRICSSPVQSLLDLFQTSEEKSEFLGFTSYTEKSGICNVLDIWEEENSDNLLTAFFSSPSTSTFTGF

Sequence of CDC7/DBF4 (Cell division cycle 7-related protein kinase/Activator of S phase kinase) (Q9UBU7 whole entry): as the sequence (Q9UBU7 whole entry, looked up) above
Sequence of CDC7/DBF4 (Cell division cycle 7-related protein kinase/Activator of S phase kinase) (O00311 whole entry): as the sequence (O00311 whole entry, looked up) above
Sequence of Cell division cycle 7-related protein kinase (Homo sapiens) (O00311 whole entry, looked up): as above

SMILES | pIC50 [1] | inhibition [2] | inhibition [3] [%]
c1ccc(CSc2ncnc3[nH]ccc23)cc1 | 6.64 | Active | 
FC(F)(F)c1cccc(CSc2ncnc3[nH]cnc23)c1 | 6.49 | Active | 
FC(F)(F)c1ccccc1CSc1ncnc2[nH]cnc12 | 6.60 | Active | 
Ic1cccc(CSc2ncnc3[nH]cnc23)c1 | 7.10 | Active | 
Clc1cccc(CNc2ncnc3nc[nH]c23)c1 | 5.51 |  | 
OCc1ccc(CSc2ncnc3[nH]cnc23)cc1 | 6.52 |  | 
Clc1ccccc1CSc1ncnc2c1ncn2Cc1ccccc1Cl |  |  | 7
Clc1ccccc1CSc1ncnc2[nH]cnc12 | 7.05 | Active | 
N#Cc1ccc(CSc2ncnc3[nH]cnc23)cc1 | 6.54 |  | 
c1ccc(CSc2ncnc3c2ncn3Cc2ccccc2)cc1 |  |  | 0
Fc1cccc(CSc2ncnc3[nH]cnc23)c1 | 6.44 | Active | 
Fc1ccc(CCSc2ncnc3[nH]cnc23)cc1 | 6.41 | Active | 
Brc1ccc(Sc2ncnc3[nH]cnc23)cc1 | 5.86 |  | 
O=C(CSc1[nH]cnc2ncnc1-2)c1ccc([N+](=O)[O-])cc1 | 5.51 |  | 
Brc1cccc(CSc2ncnc3sccc23)c1 |  |  | 11
Clc1cccc(CCSc2ncnc3c2ncn3CCc2cccc(Cl)c2)c1 |  |  | 8
CC(=O)Nc1ccc(CSc2ncnc3[nH]cnc23)cc1 | 6.33 |  | 
O=C(CSc1[nH]cnc2ncnc1-2)c1ccc(Cl)cc1 | 5.38 |  | 
Clc1cccc(CSc2ncnc3c2ncn3Cc2cccc(Cl)c2)c1 |  |  | 30
Brc1ccc(CSc2[nH]cnc3ncnc2-3)cc1 | 6.36 | Active | 
FC(F)(F)c1ccccc1CSc1ncnc2c1ncn2Cc1ccccc1C(F)(F)F |  |  | 9
Ic1ccccc1CSc1ncnc2[nH]cnc12 | 6.24 | Active | 
Clc1cccc(CCSc2ncnc3[nH]cnc23)c1 | 6.52 | Active | 

SMILES | pIC50 [1] | inhibition [2] | inhibition [3] [%]
O=[N+]([O-])c1cccc(CSc2ncnc3[nH]cnc23)c1 | 6.72 |  | 
Brc1cccc(CSc2ncnc3[nH]cnc23)c1 | 6.89 |  | 
c1ccc(CSc2ncnc3sccc23)cc1 |  |  | 18
N#Cc1cccc(CSc2ncnc3[nH]cnc23)c1 | 6.47 |  | 
Ic1ccc(CSc2ncnc3[nH]cnc23)cc1 | 6.52 | Active | 
Clc1ccc(CSc2[nH]cnc3ncnc2-3)cc1 | 6.74 | Active | 
Clc1cccc(COc2ncnc3[nH]cnc23)c1 | 6.72 | Active | 
CSc1ccc(CSc2ncnc3[nH]cnc23)cc1 | 6.85 | Active | 
COc1cccc(CSc2ncnc3[nH]cnc23)c1 | 6.62 | Active | 
Ic1ccccc1CSc1ncnc2c1ncn2Cc1ccccc1I |  |  | 4
Clc1ccc(CCSc2ncnc3c2ncn3CCc2ccc(Cl)cc2)cc1 |  |  | 3
O=C(CSc1ncnc2[nH]cnc12)c1ccc(Br)cc1 | 5.67 |  | 
FC(F)(F)c1ccc(CSc2ncnc3[nH]cnc23)cc1 | 6.44 | Active | 
O=[N+]([O-])c1ccc(CSc2ncnc3[nH]cnc23)cc1 | 6.89 | Active | 
Brc1cccc(CSc2ncnc3[nH]ccc23)c1 | 6.41 |  | 
Fc1ccc(CCSc2ncnc3c2ncn3CCc2ccc(F)cc2)cc1 |  |  | 12
Brc1ccc(COc2ncnc3[nH]cnc23)cc1 | 6.04 | Active | 
Clc1ccccc1CCSc1ncnc2c1ncn2CCc1ccccc1Cl |  |  | 4
Clc1ccc(CCSc2ncnc3[nH]cnc23)cc1 | 6.85 | Active | 
COc1ccc(Sc2ncnc3[nH]cnc23)cc1 | 5.76 |  | 
c1ccc(COc2[nH]cnc3ncnc2-3)cc1 | 6.77 |  | 
Clc1ccccc1CCSc1ncnc2[nH]cnc12 | 6.72 | Active | 
